Data published in US11156599B2, “Assay for telomere length regulators” (The Johns Hopkins University, priority 2015, dated 2021).

How the values were obtained:
Assay type in all cases: cell-based, mouse
[1] = test system: de novo telomere addition on chr4 in SL13 cells; assay: ADDIT assay (Addition of de novo initiated telomeres): modified STELA PCR and PacBio sequencing
From the text: To examine potential mammalian genes that regulate telomere length, an assay was developed that allows visualization of telomere addition in vivo, referred here as ADDIT (Addition of de novo initiated telomeres). In a chromosomally stable CASTEiJ mouse fibroblast cell line, chromosome 4 (chr4) was modified to generate an internal 480 bp telomere ‘seed’ sequence followed by a unique I-Sce1 endonuclease cut site (FIG. 1A). The length of seed sequence was based on an early study showing that 400 bp of telomere repeats can act as functional telomeres. Using Southern blot analysis, two independent HYG-positive clones were identified, clone 1L and 1M, with a single chr4 allele correctly modified (data not shown).
To better visualize the telomere addition on the I-Sce1 cut telomere seed, the single telomere length analysis (STELA) (Baird et al., 2004, Hum Mol Genet 13, 1515-1524), a PCR-based approach that can measure telomere lengths from individual chromosome ends was modified. The STELA assay employs annealing and ligation of a linker, ‘telorette’, with TTAGGG and a unique 20-nucleotide sequence to the G-rich 3′ telomere overhang followed by PCR of the telomere from a ‘teltail’ primer and primer in the HYG sequence on the engineered chromosome (FIG. 2). The PCR product lengths will be proportional to the telomere lengths at the cleaved chr4 allele. As a control, to amplify the un-extended cut chromosome in vitro, a different linker, ‘IScerette’ was designed, which has a 4-nt homology to the 4-nt 3′ overhang created by the I-Sce1 endonuclease at the cleavage site (FIG. 2). […] This in vitro IScerette PCR product serves as a marker for the base line length of the cut, unextended telomere seed sequence.
To further verify the longer STELA PCR products represent de novo telomere addition, the PCR products were sequenced with Pacific Biosciences (PACBIO®) next generation sequencing technology. The PACBIO® platform produces longer reads and is less GC bias compared to other next generation sequencing platforms. While errors were present in the sequence as expected, the telomere repeats were easily recognizable. All of the reads from the PACBIO® were filtered and only those that had unique HYG sequence followed by telomere sequence and the ‘teltail’ primer sequence were examined. This assures that only full length of STELA PCR products were analyzed. The reads were then aligned at the junction between the HYG sequence and the telomere repeats. Wild-type TTAGGG repeats were colored orange and variant telomere repeats were colored in darker orange (FIG. 3A). Some of these variants arose due to errors in sequencing. An error rate similar to the published error rate of PACBIO® sequencing, 10-15% was observed. The errors were uniformly distributed over the reference sequence, dominated by point insertions and deletions, as expected for PACBIO® sequencing. There were three regions of divergent sequence in the original construct that are evident as darker orange stripes in the aligned reads (see for reference, in vitro IScelrette). These are small variation in TTAGGG sequence in the original SL13 clone and serve as useful internal reference points.
The original STELA protocol used for human cells (Baird et al., 2004, Hum Mol Genet 13, 1515-1524) was modified to measure telomere lengths on the de novo end of chr4 in SL13 cells. Briefly, genomic DNA was extracted using Puregene Core Kit A ^TM (Qiagen). 4 μg of genomic DNA was digested with SphI (NEB) and later diluted to 10 ng/μl in water. For the in vitro IScerette sample, genomic DNA was digested with SphI and I-SceI (NEB) prior to ligation. The ligation was carried out at 35° C. for at least 12 hrs in a volume of 10 μl containing 10 ng of digested genomic DNA, 0.9 μM of telorette linkers (mixture of telorette 1 to 6) or IScerette linker and 0.5 U of T4 DNA ligase (NEB) in 1× T4 ligation buffer. […]

[2] = test system: SL13 cells; assay: Cell cycle profile by propidium iodide staining and flow cytometry; settings: 200 ng/ml colcemid or 2.5 mM thymidine, 24 hrs
Description: SL13 cells were grown in DMEM (Gibco) supplemented with 1% Penicillin/Streptomycin/Glutamine and 10% Tet system approved FBS (Clontech, #631107). Final concentration of 2 μg/ml of doxycycline was added in the media to induce I-Sce1 expression. Typically cells were collected post 48 hours of doxcycline treatment. To arrest cells in different cell cycle phases, cells were treated with either final concentration of 200 ng/ml colcemid (Gibco KaryoMAX Colcemid Solution, #15212-012) or 2.5 mM Thymidine (Sigma, #T-1895).
Cell cycle phase was accessed by DNA content using propidium iodide (PI) staining and flow cytometry analysis. Briefly, cell pellets were washed with 1× PBS at 500× g for 5 minutes and resuspended in 500 μl of 1× PBS. 4.5 ml of ice cold 70% ethanol was added drop by drop, and incubated overnight at 4° C. Samples were washed with 5 ml 1× PBS and incubated with 500 μl of PI-Triton resuspension buffer at room temperature for ≥30 minutes protected from light. PI-Triton resuspension buffer was made of 0.1% Triton™ X-100, 200 μg/ml RNase A, 20 μg/ml PI (Invitrogen, #P3566) in 1× PBS. PI-stained samples were transferred to strainer tubes (BD Falcon) and run on FACSCalibur™ flow cytometry (BD Biosciences). Cell cycle profiles were analyzed utilizing the Dean-Jet-Fox™ model in FlowJo™ software (FlowJo™).

[3] = test system: HA-tagged I-Sce1; assay: Quantitative RT-PCR of HA-tagged I-Sce1 expression; settings: 200 ng/ml colcemid or 2.5 mM thymidine, 48 hrs; normalized to HPRT
Description: To measure HA-tagged I-Sce1 expression levels, quantitative RT-PCR was performed as described in 2.4.5. Primers used are the following: HA-ISce1-FOR, 5′-[…]-3′ (SEQ ID NO: 143); ISce1-REV2, 5′-[…]-3′ (SEQ ID NO: 144); HPRT_F, 5′-[…]-3′ (SEQ ID NO: 145); HPRT_R, 5′-[…]-3′ (SEQ ID NO: 146).

[4] = test system: SL13 cells; assay: Southern blot of genomic DNA for de novo telomere addition smear in arrested cells; settings: cells arrested in G1 phase versus control cells and G2/M cells
From the text: To examine the in vivo chr4 cleavage and de novo telomere addition, genomic DNA extracted from SL13 cells arrested at different cell phases and treated with doxycycline for various time points were digested with Ncol restriction enzyme (NEB) and further analyzed by Southern blot as described previously in Example 1 with a random primed α-32P-labeled HYG probe.

Compound | elongation beyond the chr4 I-Sce1-induced cut base line ([1]; Southern blot analysis of STELA PCR products, 400 nM flavopiridol) | PacBio reads with de novo telomere addition in cells held in G2/M phase ([1]; 200 ng/ml colcemid, 48 hrs) | cell cycle phase of arrest [2] | I-Sce1 expression in cells arrested at different phases [3] | 'smear' representative of de novo telomere addition [4]
CN1CC[C@H](c2c(O)cc(O)c3c(=O)cc(-c4ccccc4Cl)oc23)[C@H](O)C1 [flavopiridol] | minimal elongation | – | – | – | –
CN[C@H]1CCc2cc(OC)c(OC)c(OC)c2-c2ccc(OC)c(=O)cc21 [colcemid] | – | significant percentage of PacBio® reads with de novo telomere addition | arrested in G2/M phase | no significant difference | –
Cc1cn([C@H]2C[C@H](O)[C@@H](CO)O2)c(=O)[nH]c1=O [thymidine] | – | – | G1/early S phase | no significant difference | even less ‘smear’
